{
  "source": "patent US7834152B2",
  "about": "“Antagonists of interleukin-15” (Beth Israel Deaconess Medical Center, Inc., priority 1996, dated 2010)",
  "key": {"[1]": {"system": "BAF-BO3 cells transfected with pRcCMV-IL-2Rβ", "assay": "[3H]-TdR proliferation assay, BAF-BO3 cells expressing human IL-2Rβ", "assay_type": "cell-based, murine", "conditions": "for cell proliferation ([3H]-TdR incorporation): cells expressing wild-type human IL-2Rβ subunit", "description": "(§1) The BAF-BO3 cell line is an IL-3-dependent, murine pro-B cell line. A BAF-BO3 cell line that was pre-selected for high expression of the IL-2Rα subunit was kindly provided by T. Taniguchi (Osaka, Japan; Hatakeyama et al., Cell 59:837, 1989). BAF-BO3 cells were transfected with vector control (pRcCMV-0) or cDNA encoding the human IL-2Rβ subunit cloned into pRcCMV (pRcCMV-IL-2Rβ), by electroporation at 350 volts and 500 μFarads using 20 μg of ScaI linearized plasmid. Transfected cells were selected in the presence of 1 mg/ml G418 and tested for the expression of the IL-2Rβ subunit by fluorescence activated cell sorting (FACS) analysis as described (Maslinski et al., Int. Immunol. 4:509, 1992; Hataleyama et al., Cell 59:837, 1989).\nIL-3 dependent BAF-BO3 cells, which constitutively express the IL-2Rγ subunit, were transfected with a control pRcCMV construct (pRcCMV-0) or a pRcCMV construct containing cDNA encoding the full-length human IL-2Rβ_subunit and the neo^r gene (pRcCMV-IL-2Rβ). G418 resistant clones were then selected. Cells that were selected in this way were used to test the biological activity of FLAG-HMK-IL-15. […] Cells were washed twice to remove the medium containing the growth factor IL-3, and starved for 16 hours in RPMI-1640 medium supplemented with 10% FCS, penicillin (0.5 U/ml), and streptomycin (0.5 μg/ml). Cells were then plated at 2×10^4 cells/well, stimulated with FLAG-HMK-IL-15, and cultured for 72 hours at 37° C. in an atmosphere containing 5% CO2. This was followed by a 14 hour “pulse” with 1 μCi of [^3H]-TdR. The BAF-BO3 cells were then harvested and cell-associated radioactivity was measured by scintillation counting as described above.\nIn order to study the effect of various IL-15 related proteins, including the mutant polypeptides described above, on the proliferation of BAF-BO3 cells, the following experiment was performed in vitro. BAF-BO3 cells were transfected in culture with DNA from either pRcCMV-IL-2Rβ or pRcCMV-0."}, "[2]": {"system": "leukemia cells (MOLT-14, YT, HuT-102, 2A, 2B)", "assay": "Flow cytometry staining of leukemic cell lines with FLAG-HMK-IL-15", "assay_type": "binding", "description": "The cells treated were from the leukemic cell lines MOLT-14, YT, HuT-102, and from cell lines currently being established at Beth Israel Hospital (Boston, Mass.), and designated 2A and 2B. The cultured cells were washed and incubated with either medium alone (tracing alone) or with medium containing the FLAG-HMK-IL-15 polypeptide (tracing filled in). The cells were then incubated with the biotinylated anti-FLAG antibody and stained with RED670-conjugated streptavidin. The stained cells were analyzed by flow cytometry.\nThe cells treated were obtained from the leukemic cell lines MOLT-14, YT, HuT-102, and from cell lines currently being established at Beth Israel Hospital (Boston, Mass.), and named 2A and 2B. The cultured cells were washed and incubated with either medium alone or with medium containing the FLAG-HMK-IL-15 wild-type polypeptide (FIG. 18). The cells were then incubated with the biotinylated anti-FLAG antibody and stained with RED670-conjugated streptavidin. The stained cells were analyzed by flow cytometry."}, "IL-15Rα subunit": {"target": "T1, IL-15Rα subunit (Homo sapiens, UniProt Q13261)", "T1 construct": "endogenous in cells", "T1 sequence (Q13261 31-267)": "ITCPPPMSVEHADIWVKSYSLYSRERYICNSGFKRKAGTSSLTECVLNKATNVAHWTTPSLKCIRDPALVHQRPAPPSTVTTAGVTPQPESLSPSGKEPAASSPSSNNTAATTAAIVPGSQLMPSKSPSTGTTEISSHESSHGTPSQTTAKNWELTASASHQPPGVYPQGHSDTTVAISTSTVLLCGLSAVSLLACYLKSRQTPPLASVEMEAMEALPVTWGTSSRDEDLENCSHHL", "assay": "Cross-linking of [32P]-FLAG-HMK-IL-15 to PHA-activated PBMCs (DSS, SDS-PAGE, autoradiography)", "assay_type": "binding", "description": "After 72 hours in culture, PHA-activated PBMCs were washed twice in cold phosphate-buffered saline (PBS), and 10^7 cells/ml were incubated for 30 minutes at 4° C. in 400 μl of RMPI-1640 medium supplemented with 25 mM HEPES (pH 7.4), 10% FCS, penicillin (0.5 U/ml), and streptomycin (0.5 μg/ml). Supplemented RPMI-1640 medium (20 μl) containing 1 μg of recombinant human IL-15 as a control for non-specific binding or medium alone was then added, and the incubation was continued for 15 minutes before 20 μl of medium containing [^32P]-labeled FLAG-HMK-IL-15 (1 ng, 500,000 cpm) was added to each sample. After further incubation for 1 hour at 4° C., the cells were washed with PBS and resuspended in 250 μl of PBS. Disuccinimidyl suberate (DDS; 1 mM), a cross-linker, was added, and cross-linking was performed as described by Tsudo et al. (Proc. Natl. Acad. Sci. USA 83:9694, 1986). The cross-linked cells were collected by centrifugation, washed, solubilized with extraction buffer (2% Nonidet P-40, 0.14 M NaCl, 25 mM HEPES (pH 7.4), 1 mM phenyl-methylsulfonyl fluoride) and centrifuged. Proteins present in the supernatants of these cell lysates were separated by 8% SDS-PAGE under reducing conditions. An autoradiogram was developed from the dry gel after exposure at −70° C. overnight. […]"}, "[3]": {"system": "BAF-BO3 cells transfected with pRcCMV-0", "assay": "[3H]-TdR proliferation assay, BAF-BO3 vector control cells", "assay_type": "cell-based, murine", "conditions": "vector lacking IL-2Rβ chain sequences", "description": "as §1\nIL-3 dependent BAF-BO3 cells, which constitutively express the IL-2Rγ subunit, were transfected with a control pRcCMV construct (pRcCMV-0) or a pRcCMV construct containing cDNA encoding the full-length human IL-2Rβ_subunit and the neo^r gene (pRcCMV-IL-2Rβ). G418 resistant clones were then selected. Cells that were selected in this way were used to test the biological activity of FLAG-HMK-IL-15. […] The BAF-BO3 cells were then harvested and cell-associated radioactivity was measured by scintillation counting as described above. […]"}, "[4]": {"system": "PHA-activated human PBMCs", "assay": "[3H]-TdR proliferation assay, PHA-activated human PBMCs", "assay_type": "cell-based", "conditions": "PHA-activated PBMCs re-stimulated with reagent", "protocol": "Peripheral blood mononuclear cells (1×10^6/ml) were stimulated with PHA (2 μg/ml) for 72 hours at 37° C. in RPMI-1640 medium supplemented with 10% FCS, penicillin, and streptomycin, as described above.\nIn the next series of experiments, the FLAG-HMK-IL-15 fusion protein was tested in order to determine whether it could function as a biologically active growth factor."}, "[5]": {"system": "IL-15 binding sites on PHA-activated human PBMCs", "assay": "Flow cytometry staining of PHA-activated PBMCs (anti-FLAG biotinylated Ab, streptavidin-RED670)", "description": "Resting or PHA-activated PBMCs (3×10^5 cells/tube) were washed twice with ice-cold PBS/0.02% sodium azide and incubated in medium containing FLAG-HMK-IL-15 (0.1 μg/100 μl) or, as a control, in medium alone. The incubation was carried out on ice for 30 minutes. The cells were then washed with PBS and incubated for two sequential 30 minute periods at 4° C. with biotin-conjugated anti-FLAG monoclonal antibody (0.5 μg/100 μl) and streptavidin-RED670 (0.5 μg/100 μl). The cells were then counterstained with CD25-PE, CD14-PE, CD16-PE, CD122-PE, CD4-FITC, or CD8-FITC, as indicated. […] Cell surface phenotype was analyzed using FACScan (Becton/Dickinson, Calif.) and Cell Quest software.\nThe FLAG-HMK-IL-15 fusion protein, biotinylated anti-FLAG antibody, and streptavidin-RED670 were employed to detect expression of IL-15 binding sites on human PBMCs by cytofluorometric analysis. […] The stained cells were analyzed by flow cytometry (FIG. 4A). […] Both activated CD4^+ and CD8^+ cells express IL-15α chains (FIG. 4C); Activation induced IL-15α chains were also detected on CD14^+ (monocyte/macrophage) cells and CD16^+ (natural killer) cells.\nPHA-activated PBMCs were washed and incubated with medium alone, or with the FLAG-HMK-IL-15 double mutant. […] The stained cells were analyzed by flow cytometry (FIG. 17)."}, "[6]": {"system": "IL-2Rαγ+ BAF-BO3 cells that express mutant S− IL-2Rβ subunit", "assay": "Proliferation assay, BAF-BO3 cells expressing mutant S− IL-2Rβ subunit", "assay_type": "cell-based, murine", "conditions": "IL-2Rβ lacking serine-rich region (S−), 38 hours", "quoted_text": "Error bars indicate the mean±standard deviation.\nTherefore, the ability of IL-15 to induce the proliferation of IL-2Rαγ^+BAF-BO3 cells that express either the wild-type IL-2Rβ subunit or a mutant IL-2Rβ protein that lacks the serine rich region (S^−)."}, "PHA-activated PBMCs": {"system": "PHA-activated PBMCs", "assay": "Proliferative response to IL-2 or IL-15 of PBMCs pre-treated with immunosuppressive drugs and PHA", "conditions": "cells pre-treated with PHA and drug, washed, cultured with IL-2 2 days"}},
  "note": "Entries after “also recorded” stand apart in the source; their conditions may differ. Like-named read-outs stand apart in the source and are kept apart here.",
  "data": [
    {"molecule": "FLAG-HMK-IL-15: IL-15 polypeptide having an N-terminus covalently bound to the 18 amino acid FLAG-HMK-sequence", "values": [
      {"measurement": "cell proliferation ([3H]-TdR incorporation)", "setting": "[1]", "value": "stimulates proliferation; also recorded: stimulated cellular proliferation"},
      {"measurement": "binding to leukemia cells", "setting": "[2]", "value": "bind leukemia cells"},
      {"measurement": "binding to the IL-15Rα subunit on mitogen-activated PBMCs", "setting": "IL-15Rα subunit; [32P]-labeled protein, DSS cross-linking, 4° C.", "value": "site specific binding"},
      {"measurement": "cell proliferation ([3H]-TdR incorporation)", "setting": "[3]", "value": "does not, however, stimulate the proliferation"},
      {"measurement": "cell proliferation ([3H]-TdR incorporation)", "setting": "[4]", "value": "proliferate in response to"}
    ]},
    {"molecule": "FLAG-HMK-IL-15 Q149D single mutant: IL-15 single mutant, glutamine at position 149 changed to aspartate, FLAG-HMK tagged", "values": [
      {"measurement": "cell proliferation ([3H]-TdR incorporation)", "setting": "[1]", "value": "stimulated cellular proliferation"}
    ]},
    {"molecule": "IL-15: recombinant human IL-15 obtained from PeproTech", "values": [
      {"measurement": "cell proliferation ([3H]-TdR incorporation)", "setting": "[1]", "value": "stimulate the proliferation; also recorded: stimulated cellular proliferation"},
      {"measurement": "competition of [32P]-FLAG-HMK-IL-15 cross-linked band", "setting": "IL-15Rα subunit; molar excess of competitor", "value": "failed to detect"},
      {"measurement": "blocking of FLAG-HMK-IL-15 binding to PHA activated PBMCs", "setting": "[5]; molar excess of competitor", "value": "blocked"},
      {"measurement": "cell proliferation", "setting": "[6]", "value": "neither cytokine is able to stimulate"}
    ]},
    {"molecule": "C[C@@H]1C[C@H]2[C@@H]3CCC4=CC(=O)C=C[C@]4(C)[C@@]3(F)[C@@H](O)C[C@]2(C)[C@@]1(O)C(=O)CO", "note": "[dexamethasone]", "values": [
      {"measurement": "proliferative response to IL-2", "setting": "PHA-activated PBMCs", "value": "not inhibited"}
    ]},
    {"molecule": "double mutant IL-15: human IL-15 protein bearing a double mutation (Q149D; Q156D), FLAG-HMK tagged", "values": [
      {"measurement": "inhibition of BAF-BO3 proliferation", "setting": "[1]; IL-15 + double mutant, 30 μl (approximately 50 μg/ml) versus 20 μL of the same concentration", "value": "inhibited proliferation more completely"},
      {"measurement": "cell proliferation ([3H]-TdR incorporation)", "setting": "[1]", "value": "did not proliferate"},
      {"measurement": "binding to PHA-activated human PBMCs", "setting": "[5]; flow cytometry", "value": "bind PHA-activated human PBMCs"}
    ]},
    {"molecule": "CO[C@H]1C[C@@H]2CC[C@@H](C)[C@@](O)(O2)C(=O)C(=O)N2CCCC[C@H]2C(=O)O[C@H]([C@H](C)C[C@@H]2CC[C@@H](O)[C@H](OC)C2)CC(=O)[C@H](C)/C=C(\\C)[C@@H](O)[C@@H](OC)C(=O)[C@H](C)C[C@H](C)/C=C/C=C/C=C/1C", "note": "[rapamycin]", "values": [
      {"measurement": "cell viability", "setting": "human PBMCs; human, 3 days, 10 ng/ml", "value": "8.5%±10%"}
    ]},
    {"molecule": "O=c1c(-c2ccc(O)cc2)coc2cc(O)cc(O)c12", "note": "[genistein]", "values": [
      {"measurement": "cell viability", "setting": "human PBMCs; genistein 10 μg/ml, 3 days of incubation", "value": "659±15 % of the control"}
    ]}
  ]
}
